In the test the target is CK2A1 (CK2α/β) (Homo sapiens, UniProt P68400). Nature of the test: CK2 kinase assay, CK2A1 (CK2α/β). It is filed as biochemical. The settings on record: Table A; read-out: CK2A1 (CK2α/β) (IC50).
Chain of CK2A1 (CK2α/β) (P68400 whole entry, species assumed): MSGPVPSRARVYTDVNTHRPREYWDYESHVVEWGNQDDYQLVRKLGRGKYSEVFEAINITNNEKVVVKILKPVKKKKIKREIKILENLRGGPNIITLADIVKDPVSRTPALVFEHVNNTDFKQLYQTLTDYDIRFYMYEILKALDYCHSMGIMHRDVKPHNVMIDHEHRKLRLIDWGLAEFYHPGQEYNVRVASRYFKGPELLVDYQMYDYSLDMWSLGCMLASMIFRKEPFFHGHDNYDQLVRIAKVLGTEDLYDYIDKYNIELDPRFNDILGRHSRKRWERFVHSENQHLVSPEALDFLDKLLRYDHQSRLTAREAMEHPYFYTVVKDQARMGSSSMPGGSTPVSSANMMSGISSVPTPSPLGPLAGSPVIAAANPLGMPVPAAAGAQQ
Chain of CK2A1 (CK2α/β) (P67870 whole entry partner, species assumed): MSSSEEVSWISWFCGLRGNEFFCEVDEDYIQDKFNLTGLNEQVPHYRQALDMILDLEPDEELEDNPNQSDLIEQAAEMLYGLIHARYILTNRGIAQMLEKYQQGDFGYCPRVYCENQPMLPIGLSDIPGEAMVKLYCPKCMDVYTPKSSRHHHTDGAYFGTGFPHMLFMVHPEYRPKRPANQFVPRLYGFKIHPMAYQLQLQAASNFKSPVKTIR
As for `CN1CCN(C(=O)N[C@@H]2CCN(c3cc(C#N)cc(Nc4nc(NC5CC5)c5ncc(C#N)n5n4)c3Cl)C[C@H]2O)CC1` (racemic) [Example 182, (+/−)-N-((3R,4R)-1-(2-chloro-5-cyano-3-((7-cyano-4-(cyclopropylamino)imidazo[2,1-f][1,2,4]triazin-2-yl)amino)phenyl)-3-hydroxypiperidin-4-yl)-4-methylpiperazine-1-carboxamide], the IC50 turned out to be 0.66 nM.

On to `N#Cc1cc(Nc2nc(NC3CC3)c3ncc(C#N)n3n2)c(Cl)c(N2CC[C@@H](NC(=O)CN3CCOCC3)[C@H](O)C2)c1` (racemic) [Example 183, (+/−)-N-((3R,4R)-1-(2-chloro-5-cyano-3-((7-cyano-4-(cyclopropylamino)imidazo[2,1-f][1,2,4]triazin-2-yl)amino)phenyl)-3-hydroxypiperidin-4-yl)-2-morpholinoacetamide], for which the IC50 was determined as 0.64 nM. As for `CN[C@@H]1CCN(c2cc(C#N)cc(Nc3nc(NC4CC4)c4ncc(C#N)n4n3)c2Cl)C[C@H]1O` (racemic) [Example 186, (+/−)-2-((2-chloro-5-cyano-3-((3R,4R)-3-hydroxy-4-(methylamino)piperidin-1-yl)phenyl)amino)-4-(cyclopropylamino)imidazo[2,1-f][1,2,4]triazine-7-carbonitrile], the figure is 1.06 nM; as for `COC(=O)N(C)[C@@H]1CCN(c2cc(C#N)cc(Nc3nc(NC4CC4)c4ncc(C#N)n4n3)c2Cl)C[C@H]1O` (racemic) [Example 187, (+/−)-methyl ((3R,4R)-1-(2-chloro-5-cyano-3-((7-cyano-4-(cyclopropylamino)imidazo[2,1-f][1,2,4]triazin-2-yl)amino)phenyl)-3-hydroxypiperidin-4-yl)(methyl)carbamate], 0.94 nM; as for `CO[C@@H]1CN(c2cc(C#N)cc(Nc3nc(NC4CC4)c4ncc(C#N)n4n3)c2Cl)CC[C@H]1N` (racemic) [Example 188, (+/−)-2-((3-((3R,4R)-4-amino-3-methoxypiperidin-1-yl)-2-chloro-5-cyanophenyl)amino)-4-(cyclopropylamino)imidazo[2,1-f][1,2,4]triazine-7-carbonitrile], 200 nM. As for `CC(=O)N[C@@H]1CN(c2cc(C#N)cc(Nc3nc(NC4CC4)c4ncc(C#N)n4n3)c2Cl)CC[C@H]1O` (racemic) [Example 190, (+/−)-N-((3R,4R)-1-(2-chloro-5-cyano-3-((7-cyano-4-(cyclopropylamino)imidazo[2,1-f][1,2,4]triazin-2-yl)amino)phenyl)-4-hydroxypiperidin-3-yl)acetamide], the figure is 0.48 nM; as for `COC(=O)N[C@@H]1CN(c2cc(C#N)cc(Nc3nc(NC4CC4)c4ncc(C#N)n4n3)c2Cl)CC[C@H]1O` (racemic) [Example 191, (+/−)-methyl ((3R,4R)-1-(2-chloro-5-cyano-3-((7-cyano-4-(cyclopropylamino)imidazo[2,1-f][1,2,4]triazin-2-yl)amino)phenyl)-4-hydroxypiperidin-3-yl)carbamate], 0.66 nM; as for `COC(=O)N[C@@H]1CCN(c2cc(C#N)cc(Nc3nc(NC4CC4)c4ncc(C#N)n4n3)c2Cl)C[C@H]1OC(=O)[C@@H](N)C(C)C` (racemic) [Example 192, (+/−)-(R)-(3S,4S)-1-(2-chloro-5-cyano-3-((7-cyano-4-(cyclopropylamino)imidazo[2,1-f][1,2,4]triazin-2-yl)amino)phenyl)-4-((methoxycarbonyl)amino)piperidin-3-yl 2-amino-3-methylbutanoate], 2.12 nM.

Regarding `COC(=O)Nc1cc(Nc2nc(NC3CC3)c3ncc(C#N)n3n2)c(Cl)c(N2CC[C@@H](NC(=O)OC)[C@@H](F)C2)c1` (racemic) [Example 202, (+/−) methyl (4-chloro-3-((7-cyano-4-(cyclopropylamino)imidazo[2,1-f][1,2,4]triazin-2-yl)amino)-5-((3S,4R)-3-fluoro-4-((methoxycarbonyl)amino)-1-piperidinyl)phenyl)carbamate], the IC50 was determined as 0.83 nM. As for `CC(O)CN1CCN(c2cc(C(F)F)cc(Nc3nc(NC4CC4)c4ncc(C#N)n4n3)c2Cl)CC1` (racemic) [Example 249, (+/−) 2-((2-chloro-5-(difluoromethyl)-3-(4-(2-hydroxypropyl)-1-piperazinyl)phenyl)amino)-4-(cyclopropylamino)imidazo[2,1-f][1,2,4]triazine-7-carbonitrile], the figure is 2.22 nM; as for `COCC(O)CN1CCN(c2cc(C(F)F)cc(Nc3nc(NC4CC4)c4ncc(C#N)n4n3)c2Cl)CC1` (racemic) [Example 250, (+/−) 2-((2-chloro-5-(difluoromethyl)-3-(4-(2-hydroxy-3-methoxypropyl)-1-piperazinyl)phenyl)amino)-4-(cyclopropylamino)imidazo[2,1-f][1,2,4]triazine-7-carbonitrile], 0.73 nM. `N#Cc1cnc2c(NC3CC3)nc(Nc3cc(C(F)F)cc(N4CC(NCC(O)CO)C4)c3Cl)nn12` (racemic) [Example 261, (+/−) 2-((2-chloro-5-(difluoromethyl)-3-(3-((2,3-dihydroxypropyl)amino)-1-azetidinyl)phenyl)amino)-4-(cyclopropylamino)imidazo[2,1-f][1,2,4]triazine-7-carbonitrile]: the IC50 amounted to 2.44 nM. As for `COC(CO)CNC1CN(c2cc(C(F)F)cc(Nc3nc(NC4CC4)c4ncc(C#N)n4n3)c2Cl)C1` (racemic) [Example 262, (+/−) 2-((2-chloro-5-(difluoromethyl)-3-(3-((3-hydroxy-2-methoxypropyl)amino)-1-azetidinyl)phenyl)amino)-4-(cyclopropylamino)imidazo[2,1-f][1,2,4]triazine-7-carbonitrile], the figure is 5 nM; as for `N#Cc1cnc2c(NC3CC3)nc(Nc3cc(C(F)F)cc(N4CCN(C5CCOC5)CC4)c3Cl)nn12` (racemic) [Example 265, (+/−) 2-(2-chloro-5-(difluoromethyl)-3-(4-(tetrahydrofuran-3-yl)piperazin-1-yl)phenylamino)-4-(cyclopropylamino)imidazo[1,2-f][1,2,4]triazine-7-carbonitrile], 3.49 nM; as for `CC(C)(O)C1CN(c2cc(C(F)F)cc(Nc3nc(NC4CC4)c4ncc(C#N)n4n3)c2Cl)CCO1` (racemic) [Example 280, (+/−) 2-((2-chloro-5-(difluoromethyl)-3-(2-(1-hydroxy-1-methylethyl)-4-morpholinyl)phenyl)amino)-4-(cyclopropylamino)imidazo[2,1-f][1,2,4]triazine-7-carbonitrile], 2.09 nM. Regarding `CC[C@H]1CN(c2cc(C#N)cc(Nc3nc(NC4CC4)c4ncc(C#N)n4n3)c2Cl)C[C@H]1NC(=O)OC` (racemic) [Example 292, (+/−) methyl ((3S,4S)-1-(2-chloro-5-cyano-3-((7-cyano-4-(cyclopropylamino)imidazo[2,1-f][1,2,4]triazin-2-yl)amino)phenyl)-4-ethyl-3-pyrrolidinyl)carbamate], the IC50 is 2 nM. As for `CC[C@H]1CN(c2cc(C#N)cc(Nc3nc(NC4CC4)c4ncc(C#N)n4n3)c2Cl)CC[C@H]1NC(=O)OC` (racemic) [Example 296, (+/−) methyl ((3S,4R)-1-(2-chloro-5-cyano-3-((7-cyano-4-(cyclopropylamino)imidazo[2,1-f][1,2,4]triazin-2-yl)amino)phenyl)-3-ethyl-4-piperidinyl)carbamate], the figure is 0.94 nM.

The values above are taken from US9273057B2 (Bristol-Myers Squibb Company, priority 2012, dated 2016).
